According to US20190256559A1, “PEPTIDOMIMETIC MACROCYCLES AND USES THEREOF” (AILERON THERAPEUTICS, INC., priority 2015, published 2019):
“Also recorded” adds a separate entry of the source. Where a SMILES comes first, the peptide text is derived from it. Bridges are numbered along the chain shown (N, C = ends). [ ]: non-standard residue; d: D form. R8 = C=CCCCCCC[C@@](C)(N)C(=O)O; S5 = C=CCCC[C@](C)(N)C(=O)O

Experiments:
[1] = system: cytochrome P450 (CYP) isoforms; assay: In vitro cytochrome P450 inhibition; format: in vitro ADME
Description: (§1) Inhibition or induction of cytochrome P450 (CYP) enzymes by peptide 1 appears to be negligible at clinically-relevant concentrations, although interactions are possible at high exposures of peptide 1 with drugs that are predominantly cleared by hepatobiliary transporters.
(§2) Based on these findings, the potential of clinically relevant drug-drug interactions for concomitant medications that are cleared through CYP-mediated mechanisms can be low.

activated caspase-3 = assay: Multiplexed cytotoxicity assay: activated caspase-3 (apoptosis) induction in p53 wild-type hematopoietic cell lines; format: cell-based
Description: (§3) Cell lines from hematologic liquid cancer cells, characterized for p53 mutant/wild-type status, were seeded into 384-well plates and incubated in a humidified atmosphere of 5% CO2 at 37° C. Peptide 1 was serially diluted and assayed over 10 concentrations, up to 30 μM, in a final assay concentration of 0.1% DMSO. Treatment was added 24 hours post cell seeding, when a time zero untreated cell plate was also generated to determine the number of doublings in the 72 hour assay period. About one hundred cells per well were evaluated, with each test condition run in duplicate wells. After a 72 hour incubation period, cells were fixed and stained with fluorescently labeled antibody and nuclear dye. In the same wells, nuclei were assessed for toxicity (dye uptake) by automated fluorescence microscopy; apoptosis was assayed by elevations in anti-active caspase-3 antibody; and cell cycle arrest was assayed by elevations in anti-p21 monoclonal antibody EA10.
(§4) Cell proliferation was measured by relative cell count, which was expressed as percent of control.

[2] = 4-week rat GLP toxicity study, twice-weekly IV dosing (toxicity and toxicokinetics); format: in vivo, rats
Description: (§5) The 4-week multiple-dose GLP studies in rats and monkeys utilized twice-weekly IV dosing of peptide 1. The studies provided dose- and exposure-related assessments during both dosing and recovery periods, and results were utilized to define the maximum tolerated doses (MTD) and estimate the severely toxic dose for 10% (STD10) of rats and the highest non-severely toxic dose (HNSTD) in monkeys. All gross and microscopic signs of intolerance (e.g., reduced organ weights, sporadic findings of multi-tissue hemorrhage and hepatic necrosis) and changes in serum chemistry parameters were considered as secondary to red blood cell (RBC), platelet and/or white blood cell (WBC) depletions or anorexia and dehydration in both species.

[3] = Pharmacokinetic/toxicokinetic studies after IV administration in mice, rats and monkeys; format: in vivo
Description: Pharmacokinetic studies characterize exposure kinetics following single IV administrations of peptide 1 in mice, rats and monkeys, including evaluations of two different dosing formulations in rats and monkeys. Using qualified liquid chromatography with tandem mass spectrometry (LC-MS-MS) methods for efficacy models and dose range-finding (DRF) studies, and validated methods for GLP safety studies, absorption was characterized in mice at the MED in efficacy models and in rats and monkeys at tolerated and non-tolerated doses in toxicology studies.

[4] = system: hematologic cancer cell lines with wild-type p53; assay: Multiplexed cytotoxicity assay: cell proliferation/cytotoxicity (relative cell count), 72 h, cell lines with wild-type p53; format: cell-based; conditions: liquid cancer cells expressing WT p53 protein
[5] = system: human peripheral blood lymphocyte
[6] = system: HEL-92-1-7 leukemia cells; assay: Multiplexed cytotoxicity assay: relative cell count in HEL-92-1-7 cells (mutant p53); format: cell-based; conditions: mutant p53, 72 h
Description: as §3
(§6) Cell proliferation was measured by relative cell count, which was expressed as percent of control. […]
Results with HEL-92-1-7 leukemia cells (Table 17) are representative of the typical responses with these cell lines.

rat bone marrow = assay: In vivo micronucleus assay
Description: (§7) Peptide 1 was negative in genetic toxicology studies, including bacterial mutagenicity (Ames), chromosomal aberrations (human peripheral blood lymphocyte) and in vivo micronucleus (rat bone marrow) assays.

[7] = system: cytochrome P450 (CYP) enzymes; assay: In vitro cytochrome P450 induction; format: in vitro ADME
Description: as §1, §2

[8] = Preclinical GLP safety studies in rodents and monkeys (overall profile); format: in vivo
Description: Genotoxicity, gastrointestinal toxicity, cardiotoxicity, and immunogenicity were not observed.

plasma protein = assay: In vitro plasma protein binding; format: in vitro ADME, mouse, rat, dog, monkey, human; conditions: for free peptide 1 fraction: human and monkey plasma
Description: The in vitro protein binding of peptide 1 was evaluated over a range of concentrations in mouse, rat and monkey plasma, as well as human plasma samples from normal subjects and hypoalbuminemic patients.

[9] = system: bacterial mutagenicity (Ames); assay: Bacterial mutagenicity (Ames)
Description: as §7

[10] = 4-week monkey GLP toxicity study, twice-weekly IV dosing (toxicity and toxicokinetics); format: in vivo, monkeys
Description: as §5

p21 = assay: Multiplexed cytotoxicity assay: p21 induction in p53 wild-type hematopoietic cell lines; format: cell-based
Description: as §3

[11] = system: liquid cancer cell lines with mutant p53; assay: Multiplexed cytotoxicity assay: cell proliferation/cytotoxicity (relative cell count), 72 h, cell lines with mutant p53; format: cell-based
Description: The objective of this study was to concurrently evaluate peptide 1-induced cytotoxicity, p21 up-regulation and caspase-3 activation in multiple liquid cancer cell cell lines characterized as having either wild-type or mutated p53 in order to determine whether the cytotoxicity is PD-mediated.
as §3, §6

[12] = system: MV 4; 11 human leukemia xenograft; assay: MV 4;11 human leukemia (AML) xenograft model, survival; format: in vivo; conditions: mice, 25 mg/kg, six bi-weekly doses
Description: In another study, MV 4; 11 human leukemia xenograft model was used in mice to assess the ability of peptide 1 to inhibit tumor growth and improve overall survival in AML, a highly aggressive liquid tumor. In this study, 25 mg/kg dose of peptide 1 was administered in six bi-weekly doses and compared to the results of mice treated with only cyclophosphamide, the control group. Mice were monitored individually for an endpoint of morbidity due to progression of the leukemia. All ten mice that received the control exited the study between days 21 and 28, offering a sensitive assay for activity.

[13] = system: cryopreserved hepatocytes; assay: In vitro metabolite profile / stability in cryopreserved hepatocytes; format: in vitro ADME, mouse, rat, monkey, and human
Description: (§8) Proteolysis is the major biotransformation pathway of peptide 1. […] The predominant metabolite was also observed in the plasma in both the rat and monkey 4-week GLP toxicology studies, with adequate exposures in these studies to provide characterization of its impact on the overall safety profile of peptide 1. […] Accumulation of the predominant metabolite was not observed with repeated twice-weekly dosing in rats or monkeys.

BV-173 leukemia cells = assay: Multiplexed cytotoxicity assay: relative cell count in BV-173 cells (wild type p53); format: cell-based; conditions: wild type p53, 72 h
Description: as §3, §4
Those that did were most often characterized by significant inductions of both caspase-3 and p21. Results with BV-173 leukemia cells (Table 16) are representative of the typical responses with these cell lines.

[14] = Single-dose rat study of metabolism and elimination; format: in vivo
Description: as §8

[15] = in vivo, intravenous, 4-week rat GLP toxicity study, range over doses
[16] = in vivo, intravenous, 4-week monkey GLP toxicity study, range over doses

CC(=O)N[C@@H](CC(C)C)C(=O)N[C@H](C(=O)N[C@@H](Cc1ccccc1)C(=O)N[C@]1(C)CCCCCC/C=C/CCC[C@@](C)(C(=O)N[C@@H](C)C(=O)N[C@@H](C)C(=O)N[C@@H](C)C(=O)N[C@@H](C)C(=O)N[C@@H](C)C(=O)N[C@H](C)C(N)=O)NC(=O)[C@H](CC(C)C)NC(=O)[C@H](CCC(N)=O)NC(=O)[C@H](C)NC(=O)[C@H](Cc2c[nH]c3ccccc23)NC(=O)[C@H](Cc2ccc(O)cc2)NC(=O)[C@H](CCC(=O)O)NC1=O)[C@@H](C)O [peptide 1] (Ac-LTF[R8]EYWAQL[S5]AAAAA[dA]-NH2; staple (E) 4-11)
inhibition of cytochrome P450 (CYP) isoforms [1]: negligible; also recorded: not an inhibitor
apoptotic response (activated caspase-3) (activated caspase-3): robust apoptotic responses
Cmax [2, 15]: 49.9 to 186 µg/mL
clearance [2, 15]: 0.32 to 0.472 mL/min/kg
AUC(0-inf) ([2]; in vivo, intravenous, 4-week rat GLP toxicity study, range over doses, read-out: AUC0-∞): 90.5 to 562 µg·h/mL
AUC(0-inf) ([2]; in vivo, intravenous, rat, 10 mg/kg, read-out: AUC0-∞ at rat STD10): 562 µg·h/mL
predominant metabolite exposure relative to peptide 1 AUC ([2]; rat, 4-week GLP toxicology study): 6%
dose proportionality of Cmax and AUC ([2]; rats): linear, dose-proportional increases
STD10 (severely toxic dose for 10%) ([2]; rats, twice-weekly IV, 4 weeks): 10 mg/kg
dose proportionality of exposure ([3]; rats and monkeys): increased proportionally with dose
sex-based differences in PK ([3]; rats and monkeys): No significant sex-based differences
accumulation following multiple doses ([3]; rats and monkeys, twice-weekly schedule): no accumulation
accumulation of the predominant metabolite ([3]; repeated twice-weekly dosing in rats or monkeys): not observed
activity in in vitro liquid cancer cell growth assays [4]: demonstrates activity
chromosomal aberrations [5]: negative
Relative Cell Count (%) Mean ([6]; 3.00E+00 μM): 79.2%
Relative Cell Count (%) Mean ([6]; 3.00E+01 μM): 67.9%
Relative Cell Count (%) Mean ([6]; 3.01E−01 μM): 77.8%
Relative Cell Count (%) Mean ([6]; 3.01E−02 μM): 89.8%
Relative Cell Count (%) Mean ([6]; 3.02E−03 μM): 96.8%
Relative Cell Count (%) Mean ([6]; 9.49E+00 μM): 76.9%
Relative Cell Count (%) Mean ([6]; 9.51E−01 μM): 81.9%
Relative Cell Count (%) Mean ([6]; 9.52E−02 μM): 89.7%
Relative Cell Count (%) Mean ([6]; 9.53E−03 μM): 98.2%
Relative Cell Count (%) Mean ([6]; 9.55E−04 μM): 98.5%
in vivo micronucleus (rat bone marrow): negative
induction of cytochrome P450 (CYP) enzymes [7]: negligible; also recorded: did not indicate any significant treatment-related effects
Genotoxicity [8]: not observed
Histopathology [8]: bone marrow hypocellularity consistent with mild to moderate myelosuppression
cardiotoxicity [8]: not observed
gastrointestinal toxicity [8]: not observed
immunogenicity [8]: not observed
free peptide 1 fraction (plasma protein; concentrations >200 μM): 12-14%
free peptide 1 fraction (plasma protein; concentrations up to 150 μM): 3-4%
fraction unbound (plasma protein; mouse and rat plasma up 250 µM): < 0.02
fraction unbound (plasma protein; mouse, rat, dog, monkey, human, plasma of mice, rats, dogs, monkeys, and humans): 0.02 to 0.08
bacterial mutagenicity (Ames) [9]: negative
exposure at the high-dose group ([10]; 20 mg/kg, 4-week monkey GLP toxicity study): apparent plateau in exposure
platelet response ([10]; 4-week monkey GLP toxicity study, different dosings): dose-dependent decreases in platelets with recovery
Cmax [10, 16]: 133 to 562 µg/mL
clearance [10, 16]: 0.108 to 0.23 mL/min/kg
half-life [10, 16]: 222 to 360 min
AUC(0-inf) ([10]; in vivo, intravenous, 4-week monkey GLP toxicity study, range over doses, read-out: AUC0-∞): 813 to 1600 µg·h/mL
AUC(0-inf) ([10]; in vivo, intravenous, monkey, 5 mg/kg, read-out: AUC0-∞ at HNSTD in monkeys): 813 µg·h/mL
predominant metabolite plasma exposure relative to AUC ([10]; monkey, 4-week GLP toxicology study): 10%
significant thrombocytopenia ([10]; monkeys, lowest dose level 5 mg/kg): complete lack of significant thrombocytopenia
significant thrombocytopenia ([10]; monkeys, mid- and high-dose levels): only one animal
HNSTD (highest non-severely toxic dose) ([10]; monkeys, twice-weekly IV, 4 weeks): 5 mg/kg
dose proportionality of exposure ([10]; non-human primates): increased proportionally with dose
induction of p21 (p21): significant induction of p21
activity in in vitro liquid cancer cell growth assays ([11]; cells with mutations of p53): not in cells with mutations of p53
character of cytotoxicity ([11]; liquid cancer cell lines containing mutated p53): cell cycle arrest without elevated apoptosis
median overall survival [12]: 40 days
major biotransformation pathway ([13]; in vitro, across species): Proteolysis
metabolite profile across species ([13]; mouse, rat, monkey, and human cryopreserved hepatocytes): same metabolite profile
Relative Cell Count (%) Mean (BV-173 leukemia cells; 3.00E+00 μM): 15.0%
Relative Cell Count (%) Mean (BV-173 leukemia cells; 3.00E+01 μM): 2.2%
Relative Cell Count (%) Mean (BV-173 leukemia cells; 3.01E−01 μM): 31.8%
Relative Cell Count (%) Mean (BV-173 leukemia cells; 3.01E−02 μM): 84.8%
Relative Cell Count (%) Mean (BV-173 leukemia cells; 3.02E−03 μM): 99.9%
Relative Cell Count (%) Mean (BV-173 leukemia cells; 9.49E+00 μM): 4.3%
Relative Cell Count (%) Mean (BV-173 leukemia cells; 9.51E−01 μM): 14.3%
Relative Cell Count (%) Mean (BV-173 leukemia cells; 9.52E−02 μM): 64.4%
Relative Cell Count (%) Mean (BV-173 leukemia cells; 9.53E−03 μM): 94.9%
Relative Cell Count (%) Mean (BV-173 leukemia cells; 9.55E−04 μM): 100.8%
predominant clearance pathway [14]: hepatobiliary metabolism and elimination
